How the values were obtained:
Type in all cases: biochemical
[1] = Reaction of the enzyme on sucrose alone (HPAEC-PAD, HPSEC); conditions: no acceptor
Source text: The determination of the enzymatic activity of the polypeptide according to the invention can be determined by methods known to those skilled in the art, such as by use of the High Performance Liquid Chromatography Technique on reaction products with the polypeptide of the invention (MOULIS et al., J. Biol. Chem, 2006) or assay of reducing sugars by the method in dinitrosalycilic acid (SUMNER & HOWELL, 1935). More specifically, this enzymatic activity is expressed in glucansucrase units which represents the amount of enzyme which liberates one μmol of fructose per minute at 30° C. with a concentration of 100 g·L−1 sucrose and a buffer at pH 5.2 comprising 50 mM sodium acetate. This activity is preferably determined by measuring the initial rate of production of reducing sugars (fructose) by using the DNS method (SUMNER & HOWELL). To do this, a standard range of 0-2 g·L−1 of fructose is established. During kinetics, 100 μl of reaction medium are then sampled and the reaction is stopped by adding an equal volume of reagent. The samples were then heated for 5 min at 95° C., cooled in ice, diluted in half with water and the absorbance is read at 540 nm.
To characterise the functional properties of this putative transglucosylase, the enzyme was first implemented on sucrose alone, a natural substrate of enzymes of the GH70 family.
More specifically, monosaccharides, disaccharides, and small oligosaccharides (degree of polymerisation less than 20) were separated and quantified by HPAEC-PAD (High Performance Anion Exchange Chromatography with Pulsed Amperometric Detection) on column Dionex CarboPac PA-100. A sodium acetate gradient of 6 to 300 mM in 36 min, containing 150 mM of sodium hydroxide used to separate glucose, fructose, sucrose, leucrose, isomaltooligosaccharides, etc. Standard ranges of 5, 10, 15 and 20 mg·kg-1 of these sugars were performed to allow quantification. These samples were diluted for a total sugar concentration of 25 mg·kg-1. […]

[2] = Acceptor reaction with sucrose and dextran 1500 Da; α-1,3 connections by proton NMR; conditions: for factor multiplying the activity of the enzyme on addition of dextran 1500 Da as acceptor: compared to the activity measured on sucrose alone
Method: While nothing presaged that this protein had still an activity, the latter (as well as its truncated form) was also incubated in the presence of sucrose and a linear dextran (glucan composed exclusively of α-1,6 bonds) of a molecular weight of 1500 Da.
(§1) We incubated for 16 h at 30° C., enzyme in sucrose (from 25 g/L to 170 g/L) in the presence of dextrans of variable molecular weight (from 1500 Da to 2.10^6 Da) and of varying concentration of 30 g/L to 100 g/L.; the sucrose/acceptor (M/M) ratio varies depending on the desired connection rate in α-1,3. The reaction medium was buffered with a solution with final sodium acetate with 50 mM, pH 5.2. A sample at initial and final times of the reaction was conducted, heated at 95° C. for 5 minutes to stop the reaction and analysed by various chromatographic (HPAEC-PAD, HPSEC) and structural (proton NMR) techniques.
More specifically, monosaccharides, disaccharides, and small oligosaccharides (degree of polymerisation less than 20) were separated and quantified by HPAEC-PAD (High Performance Anion Exchange Chromatography with Pulsed Amperometric Detection) on column Dionex CarboPac PA-100. A sodium acetate gradient of 6 to 300 mM in 36 min, containing 150 mM of sodium hydroxide used to separate glucose, fructose, sucrose, leucrose, isomaltooligosaccharides, etc. Standard ranges of 5, 10, 15 and 20 mg·kg-1 of these sugars were performed to allow quantification. These samples were diluted for a total sugar concentration of 25 mg·kg-1.
Analyses by HPSEC (High Performance Size Exclusion Chromatography-) were used to estimate the molecular weight of oligosaccharide populations or of polymers synthesised during the reactions. The separation was done using two columns SHODEX (OH-Pack SB-805 and 802.5) arranged in series. Solutions of 1, 2.5, 5 and 10 gL−1 sucrose, fructose, maltoheptaose, Dextran 11.3 kDa, 68.4 kDa, 503 kDa, 2000 kDa served as benchmarks. The samples were diluted 10 times to reach a maximum concentration of 10 g·kg-1. A solution of 0.45 M NaNO3+1% (v/v) ethylene glycol in 0.3 mL·min-1 is used as an eluent, and the samples should be diluted in the mobile phase. Column and precolumn were maintained at 70° C., detection is performed by refractometry.
(§2) For the NMR analyses, the synthesised polymers were stored at −80° C. overnight and then be freeze-dried (CHRIST ALPHA apparatus 2-4). 10 mg of the powder obtained are then dissolved in 0.5 mL of deuterated water and analysed by proton NMR. The 1H NMR spectra were acquired on a spectrometer BRUKER AVANCE (500 MHz). The data were then treated with the TOPSPIN 3.0 software.

[3] = Acceptor reaction with sucrose and higher molecular weight dextrans; proton NMR; conditions: dextran 68.4 kDa, 503 kDa and 2×10^6 Da
Method: as §1, §2
Tests were performed out on particular dextran 68.4 kDa, 503 kDa and 2×10^6 Da. Based on proton NMR analyses, the high molecular weight dextrans have 50% of α-1,3 bonds (FIGS. 7 and 8). Here again we find the comb-like structure described in the '80 s in the work on the native glucan produced by the strain.

[4] = Screening of a library of acceptors with sucrose; conditions: FOS and XOS as acceptors
Method: The enzyme α-1,3 BrS is put in the presence of its natural substrate (sucrose) and a panel of different acceptors, including dextrans connected in α-1.2 (BRISON et al., 2009), of mutans, of alternans, of reuterans, of fructans and of fructooligosaccharides, of polyphenols, of flavonoids, of amino acids. The reaction products are analysed by various chromatographic techniques (mass spectrometry, HPAEC-PAD) and by NMR.

Molecule | ability to produce polymers of glucosyl units from sucrose alone [1] | connection rate in α-1,3 on a dextran 1500 Da [2] [%] | factor multiplying the activity of the enzyme on addition of dextran 1500 Da as acceptor [2] | substitution rate (α-1,3) ([2]; sucrose/Dextran 1500 ratio 1/2) | rate of substitution (α-1,3) ([2]; sucrose/Dextran 1500 ratio 1/3) | degree of substitution (α-1,3) ([2]; sucrose/Dextran 1500 ratio above 1, increasing the substrate concentration) [%] | degree of substitution (α-1,3) ([2]; sucrose/Dextran 1500 ratio greater than or equal to 1) | α-1,3 bonds of the high molecular weight dextrans after reaction [3] [%] | glycosylation of oligosaccharide acceptors [4] | rate of α-1,3 bonds according to the sucrose/dextran 1500 Da ratio, compared with the whole enzyme ([2]; truncated enzyme, same substrate (FIG. 6))
GH L. fallax: orthologue protein from Leuconostoc fallax KCTC 3537, about 54% overall identity with α-1,3 BrS | inability to polymerise the glucosyl units | 37 | – | – | – | – | – | – | – | –
α-1,3 BrS: transglucosylase of 1888 amino acids from L. citreum NRRL B-742 forming α-1,3 connections of glucosyl units on acceptors | no ability to produce polymers of glucosyl units | – | 26 | lower than 25% | below 15% | ~50 | about 40% | 50 | allows the glycosylation of oligosaccharides | –
ΔPS ΔC-1313: form of α-1,3 BrS truncated of the signal peptide and C-terminal (position 1313) (protein, Delta PS, delta C-1313) DTQTPVGTTQSQQDLTGQTGQDKPTTKEVIDKKEPVPQVSAQNVGDLSADAKTPKADDKQDTQPTNAQLPDQGNKQTNSNSDKGVKESTTAPVKTTDVPSKSVAPETNTSINGGQYVEKDGQFVYIDQSGKQVSGLQNIEGHTQYFDPKTGYQTKGELKNIDDNAYYFDKNSGNGRTFTKISNGSYSEKDGMWQYVDSHDKQPVKGLYDVEGNLQYFDLSTGNQAKHQIRSVDGVTYYFDADSGNATAFKAVTNGRYAEQTTKDKDGNETSYWAYLDNQGNAIKGLNDVNGEIQYFDEHTGEQLKGHTATVDGTTYYFEGNKGNLVSVVNTAPTGQYKINGDNVYYLDNNNEAIKGLYGINGNLNYFDLATGIQLKGQAKNIDGIGYYFDQNNGNGEYRYSLTGPVVKDVYSQHNAVNNLSANNFKNLVDGFLTAETWYRPAQILSHGTDWVASTDKDFRPLITVWWPNKDIQVNYLKLMQQIGILDNSVVFDTNNDQLVLNKGAESAQIGIEKKVSETGNTDWLNELLFAPNGNQPSFIKQQYLWNVDSEYPGGWFQGGYLAYQNSDLTPYANTNPDYRTHNGLEFLLANDVDNSNPVVQAEQLNWLYYLMNFGQITANDSNANFDSMRIDAISFVDPQIAKKAYDLLDKMYGLTDNEAVANQHISIVEAPKGETPITVEKQSALVESNWRDRMKQSLSKNATLDKLDPDPAINSLEKLVADDLVNRSQSSDKDSSTIPNYSIVHAHDKDIQDTVIHIMKIVNNNPNISMSDFTMQQLQNGLKAFYEDQHQSVKKYNQYNIPSAYALLLTNKDTVPRVFYGDMYQDYGDDLDGGQYMATKSIYYNAIEQMMKARLKYVAGGQIMAVTKIKNDGINKDGTNKSGEVLTSVRFGKDIMDAQGQGTAESRNQGIGVIVSNSSGLELKNSDSITLHMGIAHKNQAYRALMLTNDKGIVNYDQDNNAPIAWTNDHGDLIFTNQMINGQSDTAVKGYLNPEVAGYLAVWVPVGANDNQDARTVTTNQKNTDGKVLHTNAALDSKLMYEGFSNFQKMPTRGNQYANVVITKNIDLFKSWGITDFELAPQYRSSDGKDITDRFLDSIVQNGYGLSDRYDLGFKTPTKYGTDQDLRKAIERLHQAGMSVMADFVANQIYGLHADKEVVSAQHVNINGDTKLVVDPRYGTQMTVVNSVGGGDYQAKYGGEYLDTISKLYPGLLLDSNGQKIDLSTKIKEWSAKYLNGSNIPQVGMGYVLKDWNNGQYFHILDKEGQYSLPTQL | no ability to produce polymers of glucosyl units | – | 26 | – | – | – | – | 50 | – | same results
